# Target: ACL (Homo sapiens (Human), UniProt P53396)
# Assay: ADP-Glo Assay
# Format: biochemical
# Settings: 3 nM ACL, 15 μM ATP, 3 μM CoA, 300 μM Citrate
# Description: Example 28. ADP-Glo Assay
# Compounds of the present invention were evaluated in an ADP-GLO assay as follows: a) Dilute cpd 1:3 in succession in DMSO by hand for each cpds for 12 pts b) Add 0.1 μL diluted cpd solution to assay plate, each dose with 2 replicates c) Centrifuge 1000 RPM for 1 min d) Add 5 μL ACL working solution to 384-well assay plate, centrifuge 1000 RPM for 1 min e) Incubate at 25° C. for 15 min f) Add 5 μL substrate working solution to initiate reaction g) Final ACL reaction concentrations: 3 nM ACL, 15 μM ATP, 3 μM CoA, 300 μM Citrate, 0.01% Brij35, 4 mM DTT, 1% DMSO; h) Reference final conc: 30 uM starting Conc, 3× dilution, 11+0 points. Test cpd conc: 30/100 uM starting Conc, 3× dilution, 11+0 points. i) Incubate at 25° C. for 60 min j) Add 10 μL ADP Glo reagent, centrifuge 1000 RPM for 1 min k) Incubate at 25° C. for 40 min l) Add 20 μL kinase detection reagent, centrifuge 1000 RPM for 1 min m) Incubate at 25° C. for 40 min n) Read on Envision for US LUM as RLU
# Chain of ACL (P53396 whole entry, species assumed): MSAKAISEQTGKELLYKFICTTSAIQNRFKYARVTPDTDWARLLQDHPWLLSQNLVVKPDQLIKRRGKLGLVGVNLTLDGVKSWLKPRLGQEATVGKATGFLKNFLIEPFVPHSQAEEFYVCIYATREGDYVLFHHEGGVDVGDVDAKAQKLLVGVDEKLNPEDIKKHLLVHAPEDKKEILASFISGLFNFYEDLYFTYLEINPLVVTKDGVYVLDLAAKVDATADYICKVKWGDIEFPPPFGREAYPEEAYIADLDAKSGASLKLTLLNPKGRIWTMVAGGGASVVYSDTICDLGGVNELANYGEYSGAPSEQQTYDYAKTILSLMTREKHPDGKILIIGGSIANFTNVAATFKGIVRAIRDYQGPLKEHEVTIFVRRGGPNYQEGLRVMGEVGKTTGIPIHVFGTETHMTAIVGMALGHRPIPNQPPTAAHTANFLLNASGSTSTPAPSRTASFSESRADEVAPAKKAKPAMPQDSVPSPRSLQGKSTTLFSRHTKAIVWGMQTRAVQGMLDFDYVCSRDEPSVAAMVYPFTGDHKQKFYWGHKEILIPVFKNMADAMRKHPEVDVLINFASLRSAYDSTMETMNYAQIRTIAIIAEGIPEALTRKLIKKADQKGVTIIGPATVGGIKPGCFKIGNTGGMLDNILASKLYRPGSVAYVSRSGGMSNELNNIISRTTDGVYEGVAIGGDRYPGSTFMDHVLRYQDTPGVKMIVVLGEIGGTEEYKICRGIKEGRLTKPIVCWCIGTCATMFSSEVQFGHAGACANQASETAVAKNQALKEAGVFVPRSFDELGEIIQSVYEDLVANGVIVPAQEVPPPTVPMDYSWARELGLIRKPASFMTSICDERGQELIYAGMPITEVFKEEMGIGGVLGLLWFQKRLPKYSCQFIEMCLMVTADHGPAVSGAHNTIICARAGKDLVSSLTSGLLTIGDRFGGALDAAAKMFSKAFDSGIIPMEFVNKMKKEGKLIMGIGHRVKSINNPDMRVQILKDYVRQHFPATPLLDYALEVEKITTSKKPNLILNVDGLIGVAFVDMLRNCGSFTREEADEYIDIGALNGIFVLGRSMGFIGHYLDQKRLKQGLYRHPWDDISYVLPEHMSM
row,Compound,IC50
1,O=C(O)c1ccc2c(c1)cc(-c1ccccc1)n2S(=O)(=O)c1cc(F)cc(F)c1 [I-87],0.5 to 20 µM
2,Cn1cc(-c2cc3cc(C#N)ccc3n2S(=O)(=O)c2cc(F)cc(F)c2O)cn1 [I-118],≥ 20 µM
3,C[C@@H]1CN(S(=O)(=O)c2cc(Cl)cc(Cl)c2O)C[C@H](C)O1 [I-14],0.5 to 20 µM
4,N#Cc1ccc2c(c1)cc(C1CC1)n2S(=O)(=O)c1cc(F)cc(F)c1O [I-82],0.5 to 20 µM
5,N#Cc1ccc2c(c1)cc(-c1cc3ccccc3s1)n2S(=O)(=O)c1cc(Br)cc(Cl)c1O [I-161],0.5 to 20 µM
6,O=C(O)c1cc(C(=O)O)c(O)c(S(=O)(=O)n2c(-c3ccccc3)cc3cc(Cl)ccc32)c1 [I-121],0.5 to 20 µM
7,O=S(=O)(c1cc(F)cc(F)c1O)n1c(-c2ccncc2)cc2cc(Cl)ccc21 [I-93],0.5 to 20 µM
8,O=S(=O)(c1cc(Cl)cc(Cl)c1O)N1CCC(Oc2ccccc2)CC1 [I-10],0.5 to 20 µM
9,Cc1c(-c2ccccc2)c2cc(Cl)ccc2n1S(=O)(=O)c1cc(Br)cc(Cl)c1O [I-46],0.5 to 20 µM
10,"O=c1[nH]cc(Cl)cc1S(=O)(=O)n1c(-c2ccc(OC(F)(F)F)cc2)cc2cc(Cl)ccc21 [I-64, 5-chloro-3-((5-chloro-2-(4-(trifluoromethoxy)phenyl)-1H-indol-1-yl)sulfonyl)pyridin-2(1H)-one]",0.5 to 20 µM
11,O=S(=O)(c1cc(F)cc(F)c1O)n1c(-c2cccc[n+]2[O-])cc2cc(Cl)ccc21 [I-126],≥ 20 µM
12,CN(C)C(=O)c1cc2cc(Cl)ccc2n1S(=O)(=O)c1cc(Cl)cc(Cl)c1O [I-111],0.5 to 20 µM
13,Cc1ccc2c(c1)cc(-c1ccccc1)n2S(=O)(=O)c1cc(Br)cc(Cl)c1O [I-43],0.5 to 20 µM
14,O=S(=O)(c1cc(Cl)cc(Cl)c1O)N1CCCCC1c1ccccc1 (centres unmarked) [I-22],0.5 to 20 µM
15,O=S(=O)(c1cc(Br)cc(Cl)c1O)n1cc(-c2cncs2)c2cc(Cl)ccc21 [I-159],< 0.5 µM
16,O=S(=O)(c1cc(F)cc(F)c1O)n1c(-c2ccc[n+]([O-])c2)cc2cc(Cl)ccc21 [I-98],0.5 to 20 µM
17,COC(=O)c1cc(Cl)c(O)c(S(=O)(=O)N2CCc3ccc(-c4ccccc4)cc32)c1 [I-2],0.5 to 20 µM
18,O=S(=O)(c1cc(Cl)cc(Cl)c1O)N1CC2(CCOCC2)c2ccccc21 [I-6],0.5 to 20 µM
19,Cc1cnc(-c2cc3cc(Cl)ccc3n2S(=O)(=O)c2cc(F)cc(F)c2O)cn1 [I-127],0.5 to 20 µM
20,"COc1ccc2c(c1)cc(-c1ccccc1)n2S(=O)(=O)c1cc(Br)cc(Cl)c1O [I-31, 4-bromo-2-chloro-6-((5-methoxy-2-phenyl-1H-indol-1-yl)sulfonyl)phenol]",0.5 to 20 µM
21,"O=S(=O)(c1cc(Cl)cc(Cl)c1O)n1c(-c2ccc(OC(F)(F)F)cc2)cc2cc(Cl)ccc21 [I-32, 2,4-dichloro-6-((5-chloro-2-(4-(trifluoromethoxy)phenyl)-1H-indol-1-yl)sulfonyl)phenol]",0.5 to 20 µM

row,Compound,IC50
1,O=S(=O)(c1cc(F)cc(F)c1O)n1c(-c2cnc(O)nc2)cc2cc(Cl)ccc21 [I-140],0.5 to 20 µM
2,NC(=O)c1ccc2c(c1)cc(-c1ccccc1)n2S(=O)(=O)c1cc(Cl)cc(Cl)c1O [I-57],0.5 to 20 µM
3,O=S(=O)(c1cc(Cl)cc(Cl)c1O)N1CCC(Cc2ccccc2)C1 (centres unmarked) [I-18],0.5 to 20 µM
4,O=C(NO)c1ccc2cc(-c3ccccc3)n(S(=O)(=O)c3cc(Br)cc(Cl)c3O)c2c1 [I-154],0.5 to 20 µM
5,"O=S(=O)(c1ccccc1O)n1c(-c2ccccc2)cc2cc(Cl)ccc21 [I-106, 2-((5-chloro-2-phenyl-1H-indol-1-yl)sulfonyl)phenol]",≥ 20 µM
6,O=S(=O)(c1cc(Br)cc(Cl)c1O)n1c(C2CC2)cc2cc(Cl)ccc21 [I-41],0.5 to 20 µM
7,O=C(c1cn(S(=O)(=O)c2cc(Br)cc(Cl)c2O)c2ccc(Cl)cc12)N1CCC1 [I-163],0.5 to 20 µM
8,Cc1cc2cc(Cl)c(O)cc2n1S(=O)(=O)c1cc(Br)cc(Cl)c1O [I-158],0.5 to 20 µM
9,O=S(=O)(c1cc(Br)cc(Cl)c1O)n1c(-c2cc3ccccc3s2)cc2cc(Cl)ccc21 [I-144],0.5 to 20 µM
10,O=C(O)c1ccc(-c2cc3cc(Cl)ccc3n2S(=O)(=O)c2cc(Cl)cc(Cl)c2O)cc1 [I-59],0.5 to 20 µM
11,O=S(=O)(c1cc(Br)cc(Cl)c1O)n1c(-c2ccc(OC(F)(F)F)nc2)cc2cc(Cl)ccc21 [I-146],0.5 to 20 µM
12,Cc1cn(S(=O)(=O)c2cc(Br)cc(Cl)c2O)c2ccc(Cl)cc12 [I-147],0.5 to 20 µM
13,O=C(O)c1cccc2c1cc(-c1ccccc1)n2S(=O)(=O)c1cc(Cl)cc(Br)c1 [I-68],0.5 to 20 µM
14,O=C(c1cc2cc(Cl)ccc2n1S(=O)(=O)c1cc(Br)cc(Cl)c1O)N1CCC1 [I-162],0.5 to 20 µM
15,COCOc1cc2c(cc1Cl)cc(C)n2S(=O)(=O)c1cc(Br)cc(Cl)c1O [I-150],0.5 to 20 µM
16,Cc1cc2cc(Cl)ccc2n1S(=O)(=O)c1cc(-c2cncs2)cc(Cl)c1O [I-156],0.5 to 20 µM
17,O=S(=O)(c1cc(F)cc(F)c1O)n1c(-c2cccnc2)cc2cc(Cl)ccc21 [I-91],0.5 to 20 µM
18,Cc1nccnc1-c1cc2cc(Cl)ccc2n1S(=O)(=O)c1cc(F)cc(F)c1O [I-135],0.5 to 20 µM
19,O=S(=O)(c1cc(F)cc(F)c1O)n1c(-c2cncs2)cc2cc(F)ccc21 [I-86],0.5 to 20 µM
20,COc1ccc2c(c1)CCN2S(=O)(=O)c1cc(Cl)cc(Cl)c1O [I-17],0.5 to 20 µM
21,O=S(=O)(c1cc(Br)cc(Cl)c1O)n1c(-c2cccnc2)cc2cc(Cl)ccc21 [I-34],< 0.5 µM

row,Compound,IC50
1,"O=c1[nH]cc(Cl)cc1S(=O)(=O)n1c(-c2ccccc2)cc2cc(Cl)ccc21 [I-65, 5-chloro-3-((5-chloro-2-phenyl-1H-indol-1-yl)sulfonyl)pyridin-2(1H)-one]",0.5 to 20 µM
2,COc1ncc(-c2cc3cc(Cl)ccc3n2S(=O)(=O)c2cc(F)cc(F)c2O)cn1 [I-138],0.5 to 20 µM
3,"O=S(=O)(c1cc(Br)cc(Cl)c1O)n1c(-c2ccc(OC(F)(F)F)cc2)cc2ccncc21 [I-49, 4-bromo-2-chloro-6-((2-(4-(trifluoromethoxy)phenyl)-1H-pyrrolo[2,3-c]pyridin-1-yl)sulfonyl)phenol]",0.5 to 20 µM
4,O=S(=O)(c1cc(Cl)cc(Cl)c1O)N1CC(c2nc3ccccc3s2)C1 [I-15],0.5 to 20 µM
5,N#Cc1ccc2c(c1)cc(-c1cnc[nH]1)n2S(=O)(=O)c1cc(F)cc(F)c1O [I-83],0.5 to 20 µM
6,"O=S(=O)(c1cc(F)cc(F)c1O)n1c(-c2cc3ccccc3s2)cc2cc(Cl)ccc21 [I-143, 2-((2-(benzo[b]thiophen-2-yl)-5-chloro-1H-indol-1-yl)sulfonyl)-4,6-difluorophenol]",0.5 to 20 µM
7,O=S(=O)(c1cc(F)cc(F)c1O)n1c(-c2cccnn2)cc2cc(Cl)ccc21 [I-99],0.5 to 20 µM
8,O=S(=O)(c1cc(F)cc(F)c1O)n1c(-c2ccnnc2)cc2cc(Cl)ccc21 [I-103],0.5 to 20 µM
9,O=S(=O)(c1cccc(F)c1O)n1c(-c2ccccc2)cc2cc(Cl)ccc21 [I-112],0.5 to 20 µM
10,O=S(=O)(c1cc(F)ccc1O)n1c(-c2ccccc2)cc2cc(Cl)ccc21 [I-76],0.5 to 20 µM
11,CN(C)C(=O)c1ccc(-c2cc3cc(Cl)ccc3n2S(=O)(=O)c2cc(Cl)cc(Cl)c2O)cc1 [I-60],0.5 to 20 µM
12,"O=C(c1ccc2cc(-c3ccccc3)n(S(=O)(=O)c3cc(Br)cc(Cl)c3O)c2c1)N1CCC1 [I-145, Azetidin-1-yl(1-((5-bromo-3-chloro-2-hydroxyphenyl)sulfonyl)-2-phenyl-1H-indol-6-yl)methanone]",0.5 to 20 µM
13,CN(C)C(=O)c1ccccc1-c1cc2cc(Cl)ccc2n1S(=O)(=O)c1cc(Br)cc(Cl)c1O [I-38],0.5 to 20 µM
14,O=C(O)c1ccc2c(c1)cc(-c1ccccc1)n2S(=O)(=O)c1cc(Br)cc(Cl)c1O [I-55],< 0.5 µM
15,"COc1c(Cl)cc(Br)cc1S(=O)(=O)n1c(-c2ccccc2)cc2cc(Cl)ccc21 [I-107, 1-((5-bromo-3-chloro-2-methoxyphenyl)sulfonyl)-5-chloro-2-phenyl-1H-indole]",≥ 20 µM
16,O=C(c1cc2cc(Cl)ccc2n1S(=O)(=O)c1cc(Cl)cc(Cl)c1O)N1CCCCC1 [I-72],0.5 to 20 µM
17,N#Cc1ccc2c(c1)cc(-c1cccc(F)c1)n2S(=O)(=O)c1cc(F)cc(F)c1O [I-75],0.5 to 20 µM
18,"O=C(O)c1ccc(-c2cc3cc(Cl)ccc3n2S(=O)(=O)c2cc(Br)cc(Cl)c2O)cc1 [I-45, 4-(1-((5-bromo-3-chloro-2-hydroxyphenyl)sulfonyl)-5-chloro-1H-indol-2-yl)benzoic acid]",0.5 to 20 µM
19,COC(=O)c1ccc2cc(-c3ccccc3)n(S(=O)(=O)c3cc(Br)cc(Cl)c3O)c2c1 [I-70],0.5 to 20 µM
20,O=C(O)c1cccc(-c2cc3cc(Cl)ccc3n2S(=O)(=O)c2cc(Cl)cc(Cl)c2)c1 [I-84],0.5 to 20 µM

# From patent publication US11492341B2, “ACLY inhibitors and uses thereof” (Nimbus Artemis, Inc., priority 2018, dated 2022)
